Columns and labels:
I-E^d class II molecules = I-E^d class II molecules (Mus musculus, UniProt P01904+P01915); type: cell-based
I-A^d class II molecules = I-A^d class II molecules (Mus musculus, UniProt P01921+P04228); type: cell-based
Chain of I-A^d class II molecules (P04228 24-256 limits assumed): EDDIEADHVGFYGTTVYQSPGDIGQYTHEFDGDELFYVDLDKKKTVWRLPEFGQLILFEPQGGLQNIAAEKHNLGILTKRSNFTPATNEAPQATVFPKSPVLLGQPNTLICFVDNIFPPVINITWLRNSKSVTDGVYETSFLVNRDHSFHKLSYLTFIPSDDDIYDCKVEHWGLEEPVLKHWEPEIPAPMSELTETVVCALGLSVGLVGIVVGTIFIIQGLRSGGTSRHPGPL
Chain of I-A^d class II molecules (P01921 28-265 limits assumed): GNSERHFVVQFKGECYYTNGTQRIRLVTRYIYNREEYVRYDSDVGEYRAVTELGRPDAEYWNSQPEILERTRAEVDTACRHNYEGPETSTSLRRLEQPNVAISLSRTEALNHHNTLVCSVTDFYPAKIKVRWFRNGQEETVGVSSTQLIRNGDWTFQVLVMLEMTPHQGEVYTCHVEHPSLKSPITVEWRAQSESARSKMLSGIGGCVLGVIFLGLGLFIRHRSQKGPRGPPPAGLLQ

Chain of I-E^d class II molecules (P01904 26-255 limits assumed): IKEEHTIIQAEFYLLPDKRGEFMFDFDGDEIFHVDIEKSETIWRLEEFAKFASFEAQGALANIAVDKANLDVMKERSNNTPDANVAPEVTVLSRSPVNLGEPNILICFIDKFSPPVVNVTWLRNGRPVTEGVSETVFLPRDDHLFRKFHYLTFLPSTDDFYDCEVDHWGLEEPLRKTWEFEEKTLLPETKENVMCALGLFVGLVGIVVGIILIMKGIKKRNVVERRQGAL
Chain of I-E^d class II molecules (P01915 27-264 limits assumed): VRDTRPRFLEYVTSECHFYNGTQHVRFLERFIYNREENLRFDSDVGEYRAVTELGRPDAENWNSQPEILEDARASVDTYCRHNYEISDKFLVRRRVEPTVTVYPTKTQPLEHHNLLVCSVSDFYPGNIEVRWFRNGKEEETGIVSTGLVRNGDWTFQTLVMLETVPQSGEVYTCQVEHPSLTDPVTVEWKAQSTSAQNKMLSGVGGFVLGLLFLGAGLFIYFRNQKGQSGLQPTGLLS

Substance: CH3CO-(D)Thr-(D)Asp-(D)Lys-(D)Tyr-(D)Thr-(D)Ile-(D)Lys-(D)Trp-(D)Val-(D)Ala-(D)Phe-(D)Leu-(D)Lys-NH2
- inhibition (of IL-2 production / binding of cI 12–26) (I-E^d class II molecules): up to 56%
- binding to I-A^d transfected fibroblasts, in words (I-A^d class II molecules): Neither the L- nor the retro-inverso peptides bound
